Melting point data for 14 compounds are collected here from patent US20020103185A1, “Pyrazole derivatives” (priority 2000, published 2002).

Each structure is given as a SMILES string. Structures can show the parent of a compound that is named as a salt.

As usually defined, the melting point is the temperature of the solid-liquid transition.

`O=C(NC1CCC(c2cc(Nc3cccc(C(F)(F)F)c3)n[nH]2)C1)c1ccccn1` (centres unmarked) (as salt: HCl) [Example 31, Pyridine-2-carboxylic acid {3-[5-(3-trifluoromethyl-phenylamino)-2H-pyrazol-3-yl]-cyclopentyl}-amide]: the melting point is 180.1 °C. On to `O=C(NC1CCC(c2cc(Nc3cccc(C(F)(F)F)c3)n[nH]2)C1)C1CCC1` (centres unmarked) (as salt: HCl) [Example 33, Cyclobutanecarboxylic acid {3-[5-(3-trifluoromethyl-phenylamino)-2H-pyrazol-3-yl]-cyclopentyl}-amide], for which the melting point was found to be 232.4 °C.

In the case of `CC(C)(C)C(=O)NC1CCC(c2cc(Nc3cccc(C(F)(F)F)c3)n[nH]2)C1` (centres unmarked) (as salt: HCl) [Example 34, 2,2-Dimethyl-N-{3-[5-(3-trifluoromethyl-phenylamino)-2H-pyrazol-3-yl]-cyclopentyl}-propionamide], the melting point was 249.2 °C. With `COc1cccc(C(=O)N[C@H]2C[C@@H](c3cc(NC(=O)Cc4cccc5ccccc45)n[nH]3)C2)c1` (as salt: HCl) [Example 44, 3-Methoxy-N-{cis-3-[5-(2-naphthalen-1-yl-acetylamino)-2H-pyrazol-3-yl]-cyclobutyl}-benzamide], the melting point came out at 124.8 °C. The result for `O=C(Cc1cccc2ccccc12)Nc1cc([C@H]2C[C@@H](NC(=O)c3cccc(C(F)(F)F)c3)C2)[nH]n1` (as salt: HCl) [Example 45, N-{cis-3-[5-(2-Naphthalen-1-yl-acetylamino)-2H-pyrazol-3-yl]-cyclobutyl}-3-trifluoromethyl-benzamide] reads 142.8 °C. As for `CC(C)C(=O)N[C@H]1C[C@@H](c2cc(NC(=O)Cc3cccc4ccccc34)n[nH]2)C1` (as salt: HCl) [Example 46, N-{cis-3-[5-(2-Naphthalen-1-yl-acetylamino)-2H-pyrazol-3-yl]-cyclobutyl}-isobutyramide], the melting point was 130.6 °C. For `O=C(Cc1cccc2ccccc12)Nc1cc([C@H]2C[C@@H](NC(=O)C3CC3c3ccccc3)C2)[nH]n1` (stereo partly drawn) (as salt: HCl) [Example 47, 2-Phenyl-cyclopropanecarboxylic acid {cis-3-[5-(2-naphthalen-1-yl-acetylamino)-2H-pyrazol-3-yl]-cyclobutyl}-amide], the melting point stood at 139.8 °C. Turning to `CC(=O)N[C@H]1C[C@@H](c2cc(NC(=O)Cc3cccc4ccccc34)n[nH]2)C1` (as salt: HCl) [Example 48, N-[5-(cis-3-Acetylamino-cyclobutyl)-1H-pyrazol-3-yl]-2-naphthalen-1-yl-acetamide], the melting point worked out at 209.4 °C.

`O=C(Cc1cccc2ccccc12)Nc1cc([C@H]2C[C@@H](NC(=O)c3ccccc3)C2)[nH]n1` (as salt: HCl) [Example 49, N-{cis-3-[5-(2-Naphthalen-1-yl-acetylamino)-2H-pyrazol-3-yl]-cyclobutyl}-benzamide] gave a melting point of 194 °C. In the case of `O=C(Cc1cccc2ccccc12)Nc1cc([C@H]2C[C@@H](NC(=O)CC3CC3)C2)[nH]n1` (as salt: HCl) [Example 50, 2-Cyclopropyl-N-{cis-3-[5-(2-naphthalen-1-yl-acetylamino)-2H-pyrazol-3-yl]-cyclobutyl}-acetamide] it was 93.2 °C. `O=C(Cc1cccc2ccccc12)Nc1cc([C@H]2C[C@@H](NC(=O)c3ccc4ccccc4n3)C2)[nH]n1` (as salt: HCl) [Example 52, Quinoline-2-carboxylic acid {cis-3-[5-(2-naphthalen-1-yl-acetylamino)-2H-pyrazol-3-yl]-cyclobutyl}-amide] gave a melting point of 200.3 °C.

Compound `COc1ccc(C(=O)N[C@H]2C[C@@H](c3cc(NC(=O)Cc4cccc5ccccc45)n[nH]3)C2)cc1` (as salt: HCl) [Example 54, 4-Methoxy-N-{cis-3-[5-(2-naphthalen-1-yl-acetylamino)-2H-pyrazol-3-yl]-cyclobutyl}-benzamide] showed a melting point of 175.6 °C. The result for `O=C(Cc1cccc2ccccc12)Nc1cc([C@H]2C[C@@H](NC(=O)c3cccc([N+](=O)[O-])c3)C2)[nH]n1` (as salt: HCl) [Example 55, N-{cis-3-[5-(2-Naphthalen-1-yl-acetylamino)-2H-pyrazol-3-yl]-cyclobutyl}-3-nitro-benzamide] reads 123.5 °C; that for `O=C(Cc1cccc2ccccc12)Nc1cc([C@H]2C[C@@H](Oc3nc4ccccc4o3)C2)[nH]n1` (as salt: HCl) [Example 63, N-{5-[cis-3-(Benzooxazol-2-yloxy)-cyclobutyl]-1H-pyrazol-3-yl}-2-naphthalen-1-yl-acetamide], 142 °C.
